In patent US11306078B2, “Piperidine CXCR7 receptor modulators” (IDORSIA PHARMACEUTICALS LTD., priority 2016, dated 2022):

Molecular target: human chemokine receptor CXCR7 (Homo sapiens (Human), UniProt P25106)
Assay: Tango CXCR7-bla U2OS beta-arrestin recruitment assay (beta-lactamase reporter, FRET), antagonism of CXCL12/SDF1-α;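 also: compounds preincubated 15 min before CXCL12 addition, then 22 h at 37 °C, FRET emission ratio read with CCF4-AM substrate after 2 h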
Format: cell-based
Conditions: antagonistic effect on CXCR7; Tango CXCR7-bla U2OS cells, CXCL12/SDF1-α at its EC80

Sequence of human chemokine receptor CXCR7 (P25106 whole entry): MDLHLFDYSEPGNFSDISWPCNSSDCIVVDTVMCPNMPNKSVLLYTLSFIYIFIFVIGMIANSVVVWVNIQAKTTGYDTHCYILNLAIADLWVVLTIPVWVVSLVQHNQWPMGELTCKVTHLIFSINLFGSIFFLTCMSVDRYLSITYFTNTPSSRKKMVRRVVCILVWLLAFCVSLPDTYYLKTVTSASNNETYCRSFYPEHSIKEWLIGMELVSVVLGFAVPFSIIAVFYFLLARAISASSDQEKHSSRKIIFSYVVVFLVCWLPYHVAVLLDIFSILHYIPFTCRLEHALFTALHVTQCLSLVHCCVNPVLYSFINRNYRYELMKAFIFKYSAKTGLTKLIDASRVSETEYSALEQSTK

SMILES	IC50
CC(NC(=O)[C@@H]1CN(C2CCCCC2)CC[C@H]1NC(=O)c1cc(-c2ccc(F)cc2F)on1)C(F)F (relative stereo) [Example 1.077, (3R*,4R*)-1-Cyclohexyl-4-{[5-(2,4-difluoro-phenyl)-isoxazole-3-carbonyl]-amino}-piperidine-3-carboxylic acid ((1RS)-2,2-difluoro-1-methyl-ethyl)-amide]	443 nM
CC(NC(=O)[C@@H]1CN(C2CCCCC2)CC[C@H]1NC(=O)c1cc(-c2ccc(F)cc2F)on1)C1CCC1 (relative stereo) [Example 1.078, (3R*,4R*)-1-Cyclohexyl-4-{[5-(2,4-difluoro-phenyl)-isoxazole-3-carbonyl]-amino}-piperidine-3-carboxylic acid ((1RS)-1-cyclobutyl-ethyl)-amide]	193 nM
CC(CF)NC(=O)[C@@H]1CN(C2CCCCC2)CC[C@H]1NC(=O)c1cc(-c2ccc(F)cc2F)on1 (relative stereo) [Example 1.082, (3R*,4R*)-1-Cyclohexyl-4-{[5-(2,4-difluoro-phenyl)-isoxazole-3-carbonyl]-amino}-piperidine-3-carboxylic acid ((1RS)-2-fluoro-1-methyl-ethyl)-amide]	445 nM
CCOCC(C)NC(=O)[C@@H]1CN(C2CCCCC2)CC[C@H]1NC(=O)c1cc(-c2ccc(F)cc2F)on1 (relative stereo) [Example 1.083, (3R*,4R*)-1-Cyclohexyl-4-{[5-(2,4-difluoro-phenyl)-isoxazole-3-carbonyl]-amino}-piperidine-3-carboxylic acid ((1RS)-2-ethoxy-1-methyl-ethyl)-amide]	76 nM
CC1(NC(=O)[C@@H]2CN(C3CCCCC3)CC[C@H]2NC(=O)c2cc(-c3ccc(F)cc3F)on2)CCOC1 (relative stereo) [Example 1.084, (3R*,4R*)-1-Cyclohexyl-4-{[5-(2,4-difluoro-phenyl)-isoxazole-3-carbonyl]-amino}-piperidine-3-carboxylic acid ((3RS)-3-methyl-tetrahydro-furan-3-yl)-amide]	223 nM
Cc1nnc(C(C)NC(=O)[C@@H]2CN(C3CCCCC3)CC[C@H]2NC(=O)c2cc(-c3ccc(F)cc3F)on2)o1 (relative stereo) [Example 1.085, (3R*,4R*)-1-Cyclohexyl-4-{[5-(2,4-difluoro-phenyl)-isoxazole-3-carbonyl]-amino}-piperidine-3-carboxylic acid [(1RS)-1-(5-methyl-[1,3,4]oxadiazol-2-yl)-ethyl]-amide]	268 nM
CC(NC(=O)[C@@H]1CN(C2CCCCC2)CC[C@H]1NC(=O)c1cc(-c2ccc(F)cc2F)on1)c1ncc(F)cc1F (relative stereo) [Example 1.086, (3R*,4R*)-1-Cyclohexyl-4-{[5-(2,4-difluoro-phenyl)-isoxazole-3-carbonyl]-amino}-piperidine-3-carboxylic acid [(1RS)-1-(3,5-difluoro-pyridin-2-yl)-ethyl]-amide]	154 nM
CC1(NC(=O)[C@@H]2CN(C3CCCCC3)CC[C@H]2NC(=O)c2cc(-c3ccc(F)cc3F)on2)CC(F)(F)C1 (relative stereo) [Example 1.087, rac-(3R*,4R*)-1-Cyclohexyl-4-{[5-(2,4-difluoro-phenyl)-isoxazole-3-carbonyl]-amino}-piperidine-3-carboxylic acid (3,3-difluoro-1-methyl-cyclobutyl)-amide]	943 nM
O=C(N[C@@H]1CCN(C2CCCCC2)C[C@H]1C(=O)N1CCC(c2ccccn2)C1)c1cc(-c2ccc(F)cc2F)on1 (relative stereo) [Example 1.089, 5-(2,4-Difluoro-phenyl)-isoxazole-3-carboxylic acid [(3R*,4R*)-1-cyclohexyl-3-((3RS)-3-pyridin-2-yl-pyrrolidine-1-carbonyl)-piperidin-4-yl]-amide]	472 nM
C[C@@H](NC(=O)[C@@H]1CN(C2CCCCC2)CC[C@H]1NC(=O)c1cc(-c2ccc(F)cc2F)on1)C1CCC1 (relative stereo) [Example 1.091, (3R*,4R*)-1-Cyclohexyl-4-{[5-(2,4-difluoro-phenyl)-isoxazole-3-carbonyl]-amino}-piperidine-3-carboxylic acid ((R)-1-cyclobutyl-ethyl)-amide]	103 nM
C[C@@H](NC(=O)[C@@H]1CN(C2CCCCC2)CC[C@H]1NC(=O)c1cc(-c2ccc(F)cc2F)on1)c1ncccc1F (relative stereo) [Example 1.092, (3R*,4R*)-1-Cyclohexyl-4-{[5-(2,4-difluoro-phenyl)-isoxazole-3-carbonyl]-amino}-piperidine-3-carboxylic acid [(R)-1-(3-fluoro-pyridin-2-yl)-ethyl]-amide]	1 nM
C[C@@H](NC(=O)[C@@H]1CN(C2CCCCC2)CC[C@H]1NC(=O)c1cc(-c2ccc(F)cc2F)on1)C(C)(C)C (relative stereo) [Example 1.093, (3R*,4R*)-1-Cyclohexyl-4-{[5-(2,4-difluoro-phenyl)-isoxazole-3-carbonyl]-amino}-piperidine-3-carboxylic acid ((R)-1,2,2-trimethyl-propyl)-amide]	867 nM
C[C@@H](NC(=O)[C@@H]1CN(C2CCCCC2)CC[C@H]1NC(=O)c1cc(-c2ccc(F)cc2F)on1)c1ncc(F)cn1 (relative stereo) [Example 1.094, (3R*,4R*)-1-Cyclohexyl-4-{[5-(2,4-difluoro-phenyl)-isoxazole-3-carbonyl]-amino}-piperidine-3-carboxylic acid [(R)-1-(5-fluoro-pyrimidin-2-yl)-ethyl]-amide]	100 nM
C[C@@H]1CCC[C@H]1N1CC[C@@H](NC(=O)c2cn(-c3ccc(F)cc3F)nn2)[C@H](C(=O)N(C)C)C1 (relative stereo) [Example 1.098, (3R*,4R*)-4-{[1-(2,4-Difluoro-phenyl)-1H-[1,2,3]triazole-4-carbonyl]-amino}-1-((1RS,2RS)-2-Methyl-cyclopentyl)-piperidine-3-carboxylic acid dimethylamide]	276 nM
C[C@@H]1CCC[C@H]1N1CC[C@@H](NC(=O)c2cc(-c3c(F)cc(F)cc3F)on2)[C@H](C(=O)N(C)C)C1 (relative stereo) [Example 1.101, (3R*,4R*)-1-((1RS,2RS)-2-Methyl-cyclopentyl)-4-{[5-(2,4,6-trifluoro-phenyl)-isoxazole-3-carbonyl]-amino}-piperidine-3-carboxylic acid dimethylamide]	45 nM
C[C@@H]1CCC[C@H]1N1CC[C@@H](NC(=O)c2cc(-c3c(F)cc(F)cc3F)on2)[C@H](C(=O)N2CCC2)C1 (relative stereo) [Example 1.108, 5-(2,4,6-Trifluoro-phenyl)-isoxazole-3-carboxylic acid [(3R*,4R*)-3-(azetidine-1-carbonyl)-1-((1RS,2RS)-2-methyl-cyclopentyl)-piperidin-4-yl]-amide]	581 nM
COCC(C)(C)NC(=O)[C@@H]1CN([C@@H]2CCC[C@H]2C)CC[C@H]1NC(=O)c1cc(-c2c(F)cc(F)cc2F)on1 (relative stereo) [Example 1.114, (3R*,4R*)-1-((1RS,2RS)-2-Methyl-cyclopentyl)-4-{[5-(2,4,6-trifluoro-phenyl)-isoxazole-3-carbonyl]-amino}-piperidine-3-carboxylic acid (2-methoxy-1,1-dimethyl-ethyl)-amide]	626 nM
C[C@@H](NC(=O)[C@@H]1CN(C2CCCCC2)CC[C@H]1NC(=O)c1cn(-c2ccc(F)cc2F)nn1)c1ccccn1 (relative stereo) [Example 1.117, (3R*,4R*)-1-Cyclohexyl-4-{[1-(2,4-difluoro-phenyl)-1H-[1,2,3]triazole-4-carbonyl]-amino}-piperidine-3-carboxylic acid ((R)-1-pyridin-2-yl-ethyl)-amide]	68 nM
C[C@@H](NC(=O)[C@@H]1CN(C2CCCC2)CC[C@H]1NC(=O)c1cn(-c2ccc(F)cc2F)nn1)c1ccccn1 (relative stereo) [Example 1.118, (3R*,4R*)-1-Cyclopentyl-4-{[1-(2,4-difluoro-phenyl)-1H-[1,2,3]triazole-4-carbonyl]-amino}-piperidine-3-carboxylic acid ((R)-1-pyridin-2-yl-ethyl)-amide]	36 nM
C[C@@H](NC(=O)[C@@H]1CN(CC2CC2)CC[C@H]1NC(=O)c1cn(-c2ccc(F)cc2F)nn1)c1ccccn1 (relative stereo) [Example 1.119, (3R*,4R*)-1-Cyclopropylmethyl-4-{[1-(2,4-difluoro-phenyl)-1H-[1,2,3]triazole-4-carbonyl]-amino}-piperidine-3-carboxylic acid ((R)-1-pyridin-2-yl-ethyl)-amide]	146 nM
C[C@@H](NC(=O)[C@@H]1CN(C2CCCC2)CC[C@H]1NC(=O)c1cc(-c2c(F)cc(F)cc2F)on1)c1ccccn1 (relative stereo) [Example 1.122, (3R*,4R*)-1-Cyclopentyl-4-{[5-(2,4,6-trifluoro-phenyl)-isoxazole-3-carbonyl]-amino}-piperidine-3-carboxylic acid ((R)-1-pyridin-2-yl-ethyl)-amide]	10 nM
C[C@@H](NC(=O)[C@@H]1CN(CC2CC2)CC[C@H]1NC(=O)c1cc(-c2c(F)cc(F)cc2F)on1)c1ccccn1 (relative stereo) [Example 1.123, (3R*,4R*)-1-Cyclopropylmethyl-4-{[5-(2,4,6-trifluoro-phenyl)-isoxazole-3-carbonyl]-amino}-piperidine-3-carboxylic acid ((R)-1-pyridin-2-yl-ethyl)-amide]	15 nM
C[C@@H]1CCC[C@H]1N1CC[C@@H](NC(=O)c2cc(-c3c(F)cc(F)cc3F)on2)[C@H](C(=O)N[C@H](C)c2ccccn2)C1 (relative stereo) [Example 1.124, (3R*,4R*)-1-((1RS,2RS)-2-Methyl-cyclopentyl)-4-{[5-(2,4,6-trifluoro-phenyl)-isoxazole-3-carbonyl]-amino}-piperidine-3-carboxylic acid ((R)-1-pyridin-2-yl-ethyl)-amide]	16 nM
C[C@@H](NC(=O)[C@@H]1CN(C2CCCCC2)CC[C@H]1NC(=O)c1cc(-c2ccc(F)cc2F)no1)c1ccccn1 (relative stereo) [Example 1.125, (3R*,4R*)-1-Cyclohexyl-4-{[3-(2,4-difluoro-phenyl)-isoxazole-5-carbonyl]-amino}-piperidine-3-carboxylic acid ((R)-1-pyridin-2-yl-ethyl)-amide]	81 nM
